Data from patent US20160136138A1, “DRUG FOR TREATMENT OF NONALCOHOLIC FATTY LIVER DISEASE” (KOWA COMPANY, LTD., priority 2013, published 2016).

Columns and labels:
[1] = system: LDL receptor knockout mice NASH model; assay: Western diet-fed LDL receptor knockout mice NASH model; type: in vivo; conditions: 12 weeks, vs control
Source text: Effects on Western diet-fed LDL receptor knockout mice (Non Patent Document 4), which are known to develop fatty liver and hepatic inflammation, characteristic symptoms of NASH were examined. […] Male LDL receptor knockout mice ([…], Jackson Laboratories) were used in the experiment. Beginning at around 8 weeks of age, the mice were freely fed with Teklad Custom Research Diet (TD.88137, Harlan Teklad) as a Western diet for 13 weeks to develop NASH. • 2) Grouping: After 1 week of the Western diet feeding, the mice were subjected to blood sampling and weighing. The mice were divided into a control group (0.5% methyl cellulose aqueous solution), a Compound A 0.5 mg/kg administration group, and a fenofibrate 100 mg/kg administration group in such a way that there was no difference in plasma lipid level and weight between the groups. […] The administration period was 12 weeks. After the administration was completed, the livers were removed from the mice under pentobarbital sodium (50 mg/kg) anesthesia. The livers were fixed with paraformaldehyde and then subjected to the preparation of hematoxylin-eosin stained samples and immunostained samples for CD68 detection. In a blind study setting, using the hematoxylin-eosin stained samples, ballooning of hepatocytes was scored based on the following criteria (Kleiner et al. Hepatology 41, 1313-21, 2005). No balloon cells: 0 Few balloon cells: 1 Many balloon cells or ballooning: 2 The CD68 positive area in liver was measured with an image analysis system (WinROOF) in a blind study. The statistical analysis was performed using Stat […] Information Technology Inc.) (Ver. 1.1). Dunnett's test (N=14-15) was used for comparison with the control group, in which a significant difference with p<0.05 is indicated by the symbol *, and a significant difference with p<0.001 is indicated by the symbol ***.

[2] = system: KK-A^y mice fed with an MCD diet; assay: NASH model using KK-A^y mice fed with methionine-choline-deficient diet; type: in vivo; conditions: Compound A 0.25 mg/kg mixed in MCD diet (0.00026%), 16 weeks; scale 0 to 3
Experimental: Effects on experimental animals, KK-A^y mice fed with a methionine-choline-deficient diet (MCD diet), which are known to develop fatty liver, a characteristic symptom of NASH (Nakano S. et al., Hepatol Res., 38(10), 1026-39, 2008) were examined.
As in Example 1, this experiment was conducted using (R)-2-[3-[[N-(benzoxazol-2-yl)-N-3-(4-methoxyphenoxy)propyl ]aminomethyl]phenoxy]butyric acid (Compound A), which is disclosed as Example 85 in Patent Document 1 listed above.
Male KK-A^y mice (KK-A^y/TaJc1, CLEA Japan, Inc.) were used in the experiment. Beginning at around 12 weeks of age, the mice were freely fed with an MCD diet for 16 weeks to develop NASH. • 2) Grouping:
The mice were divided into a normal diet group, a control group (fed with an MCD diet), a Compound A 0.25 mg/kg administration group, and a bezafibrate 60 mg/kg administration group in such a way that there was no difference in weight between the groups. • 3) Drug administration:
The doses were mixed in the feed. The control group was fed with an MCD diet containing no drug. […]
After the administration was completed, the livers were removed from the mice under pentobarbital sodium (50 mg/kg) anesthesia. […] Depending on the grade, the fatty liver was scored on a scale of 0 to 3 based on the following criteria. […]

| SMILES | CD68 positive area in liver, reduction rate ([1]; Compound A 0.5 mg/kg orally once a day) [%] | ballooning of hepatocytes (score) ([1]; Compound A 0.5 mg/kg orally once a day, Dunnett's test) | steatosis score [2] | CD68 positive area in liver, reduction rate ([1]; fenofibrate 100 mg/kg orally once a day) [%] |
| --- | --- | --- | --- | --- |
| CC[C@@H](Oc1cccc(CN(CCCOc2ccc(OC)cc2)c2nc3ccccc3o2)c1)C(=O)O [Compound A, (R)-2-[3-[[N-(benzoxazol-2-yl)-N-3-(4-methoxyphenoxy)propyl]aminomethyl]phenoxy]butyric acid] | 81 | significant suppression of ballooning of hepatocytes | 0 |  |
| CC(C)OC(=O)C(C)(C)Oc1ccc(C(=O)c2ccc(Cl)cc2)cc1 [fenofibrate, reference compound] |  |  |  | 73 |
